Measured values from patent US7390873B2, “Antimicrobial cationic peptides” (University of British Columbia, priority 1995, dated 2008).
≈ marks a conversion by molar mass, not a printed value. Where two headings read alike, the source gives them in different places. Where a SMILES comes first, the peptide text is derived from it. Where no end group is shown, it is not given here. [ ]: non-standard residue; d: D form.

Legend:
E. coli UB1005 = assay type: cell-based; conditions: for MIC E. coli: UB1005, 24 h
Experimental: (§1) Any of the art-known methods for measuring antimicrobial activity of peptides can be used in characterizing the peptides of the invention. In these examples, conventional methods were used to determine the minimal inhibitory concentration (MIC) of a peptide in a liquid medium (Amsterdam. Antibiotics in Laboratory Medicine, Williams and Wilkins, Baltimore (1991) 72-78). Briefly, overnight cultures of the test organisms (described below) were diluted to produce an inoculum containing approximately 10^4 to 10^5 organisms. The inoculum size was confirmed by counting the number of organisms on plates that were inoculated at the same time as the liquid cultures.
(§2) The concentration of peptide was measured by assaying for free amino groups using a dinitrophenylation assay, with polymyxin B serving as a standard. Doubling dilutions of peptide were performed (32 μg/ml-0.25 μg/ml) in 100 μl volumes in a 96-well mictrotiter plate, and all wells were subsequently inoculated with the diluted culture of the test organism. After 24 hours of incubation at 37° C., the assay was read. The MIC value is the concentration of peptide at which the growth of the test organism was reduced by 50%. The number of cells in the culture inoculum was calculated from the plate count after incubating the plate for 24 hours at 37° C. The medium used for cell culture and dilution in this assay was Luria broth (LB). Each peptide was tested three times against each organism, and the MIC values presented below are the mean values of the three experiments.

[1] = system: Pseudomonas aeruginosa K799; assay type: cell-based; conditions: for MIC P. aeruginosa: K799, 24 h
Experimental: as §1, §2

[2] = system: Staphylococcus aureus RN4220; assay type: cell-based; conditions: for MIC S. aureus: RN4220, 24 h
Experimental: as §1, §2

[3] = system: Staphylococcus epidermidis C621; assay type: cell-based; conditions: for MIC S. epidermidis: C621, 24 h
Experimental: as §1, §2

Candida albicans C627 = assay type: cell-based; conditions: for MIC C. albicans: C627, 24 h
[4] = system: all of the organisms tested; experiment: MIC assay, summary over the organisms tested; assay type: cell-based; conditions: range over organisms
Experimental: as §1
as §2, with “The medium used for cell culture and dilution in this assay was Luria broth (LB). Each peptide was tested three times against each organism, and the MIC values presented below are the mean values of the three experiments.” left out
MIC values also were determined for various derivatives of indolicidin, CP-11, and CP-13. […]

human red blood cells = experiment: Lysis of red blood cells; assay type: cell-based
Experimental: Freshly collected human blood was mixed with heparin and centrifuged to remove the buffy coat. The resulting erythrocytes were washed three times in 0.85% saline and stored at 4° C. Serial dilutions of the peptides in saline were prepared in round bottomed microtitre plates using 100 μl volumes. Red blood cells were diluted with saline to 1/25 of the packed volume of cells and 50 μl of red blood cells were added to each well. Plates were incubated while rocking at 37° C., and the concentration of peptide required for red blood cell lysis of more than 80% of cells (i.e., visible lysis) was determined at 4 and 24 hours (Table 7).

[5] = Mortality after injection of peptide in mice; assay type: in vivo; conditions: 200 μg peptide IP
Experimental: The ability of indolicidin and variants to protect against LPS-induced endotoxemia was assessed in vivo. Mice (8-10 weeks old) were injected intraperitoneally (IP) with 20 mg D-galactosamine (Dgal) to sensitive them to LPS according to the model of Galanos (Galanos, C., M. A., Freudenberg and W. Reutter, 1979, Galactosamine sensitization to the lethal effects of endotoxin. Proc. Natl. Acad. Sci. USA 76:5939), followed by 200 μg peptide in 100 μl. Immediately afterwards LPS (10 μg) in 100 μl was injected. The mice were observed 24 hours after injections and survivors noted. […] When Dgal and LPS were also injected, that 200 μg of indolicidin reduced mortality reduced at 24 hours from 100% in controls to 60%.

[6] = Dansyl polymyxin B (DPX) displacement assay; assay type: binding, P. aeruginosa; conditions: concentration at which 50% of the maximal DPX was displaced from the LPS; read-out: I50 of DPX displacement
Experimental: Peptides that bind lipopolysaccharide are thought to potentially function as anti-endotoxins. The binding of various CP peptides to P. aeruginosa H103 lipopolysaccharide (LPS) was measured in a dansyl polymyxin B (DPX) displacement assay as described by Moore et al. (AAC, 26 (1986) 496-500). […] Purified LPS was saturated with DPX by titrating LPS with samples of DPX until maximum fluorescence was reached. Fluorescence was measured in a Perkin-Elmer 650-10S fluorescence spectrophotometer and displacement of DPX was measured as a decrease in fluorescence upon the addition of an antimicrobial peptide.
Each peptides I50 value, which is the concentration at which 50% of the maximal DPX was displaced from the LPS, is shown. Also shown is the Imax value, which represents the maximum displacement of […] expressed as a percentage, where 100% indicates displacement of all bound DPX.

Compound | MIC E. coli (E. coli UB1005) | MIC P. aeruginosa [1] | MIC S. aureus [2] | MIC S. epidermidis [3] | MIC C. albicans (Candida albicans C627) | further results
CC[C@H](C)[C@H](N)C(=O)N[C@@H](CC(C)C)C(=O)N[C@@H](CCCCN)C(=O)N[C@@H](CCCCN)C(=O)N[C@@H](Cc1c[nH]c2ccccc12)C(=O)N1CCC[C@H]1C(=O)N[C@@H](Cc1c[nH]c2ccccc12)C(=O)N[C@@H](Cc1c[nH]c2ccccc12)C(=O)N1CCC[C@H]1C(=O)N[C@@H](Cc1c[nH]c2ccccc12)C(=O)N[C@@H](CCCNC(=N)N)C(=O)N[C@@H](CCCNC(=N)N)C(=O)N[C@@H](CCCCN)C(=O)OC [CP-11C] (H-ILKKWPWWPWRRK-OMe) | 2 mg/L (≈ 1.06 µM) | 8 mg/L (≈ 4.22 µM) | 8 mg/L (≈ 4.22 µM) | 1 mg/L (≈ 0.528 µM) | 8 mg/L (≈ 4.22 µM) | MIC values for all of the organisms tested [4]: 1 to 8 mg/L; Lowest concentration causing lysis, 4 hours (human red blood cells): >128 µg/mL; Lowest concentration causing lysis, 24 hours (human red blood cells): 64 µg/mL
CC[C@@H](C)[C@@H](N)C(=O)N[C@@H](CC(C)C)C(=O)N[C@@H](CCCCN)C(=O)N[C@@H](CCCCN)C(=O)N[C@@H](Cc1c[nH]c2ccccc12)C(=O)N1CCC[C@H]1C(=O)N[C@@H](Cc1c[nH]c2ccccc12)C(=O)N[C@@H](Cc1c[nH]c2ccccc12)C(=O)N1CCC[C@H]1C(=O)N[C@@H](Cc1c[nH]c2ccccc12)C(=O)N[C@@H](CCCNC(=N)N)C(=O)N[C@@H](CCCNC(=N)N)C(=O)N[C@@H](CCCCN)C(=O)OC [CP-11DC] (H-[dI]LKKWPWWPWRRK-OMe; N-terminus assumed) | 4 mg/L (≈ 2.11 µM) | 4 mg/L (≈ 2.11 µM) | 4 mg/L (≈ 2.11 µM) | 2 mg/L (≈ 1.06 µM) | 8 mg/L (≈ 4.22 µM) | –
CC[C@@H](C)[C@@H](N)C(=O)N[C@@H](CC(C)C)C(=O)N[C@@H](CCCCN)C(=O)N[C@@H](CCCCN)C(=O)N[C@@H](Cc1c[nH]c2ccccc12)C(=O)N1CCC[C@H]1C(=O)N[C@@H](Cc1c[nH]c2ccccc12)C(=O)N[C@@H](Cc1c[nH]c2ccccc12)C(=O)N1CCC[C@H]1C(=O)N[C@@H](Cc1c[nH]c2ccccc12)C(=O)N[C@@H](CCCNC(=N)N)C(=O)N[C@@H](CCCNC(=N)N)C(=O)N[C@@H](CCCCN)C(=O)O [CP-11D] (H-[dI]LKKWPWWPWRRK-OH) | 4 mg/L (≈ 2.13 µM) | 4 mg/L (≈ 2.13 µM) | 4 mg/L (≈ 2.13 µM) | 2 mg/L (≈ 1.06 µM) | 8 mg/L (≈ 4.25 µM) | Mortality after injection of peptide [5]: did not cause mortality
CC[C@H](C)[C@H](N)C(=O)N[C@@H](CC(C)C)C(=O)N1CCC[C@H]1C(=O)N[C@@H](Cc1c[nH]c2ccccc12)C(=O)N[C@@H](CCCCN)C(=O)N[C@@H](Cc1c[nH]c2ccccc12)C(=O)N1CCC[C@H]1C(=O)N[C@@H](Cc1c[nH]c2ccccc12)C(=O)N[C@@H](Cc1c[nH]c2ccccc12)C(=O)N1CCC[C@H]1C(=O)N[C@@H](Cc1c[nH]c2ccccc12)C(=O)N[C@@H](CCCNC(=N)N)C(=O)N[C@@H](CCCNC(=N)N)C(=O)OC [Indolicidin-C] | 4 mg/L (≈ 2.08 µM) | >32 mg/L | 4 mg/L (≈ 2.08 µM) | 1 mg/L (≈ 0.52 µM) | >32 mg/L | Lowest concentration causing lysis, 4 hours (human red blood cells; lysis of more than 80% of cells (visible lysis), 37° C., 4 hours): 32 µg/mL; Lowest concentration causing lysis, 24 hours (human red blood cells; lysis of more than 80% of cells (visible lysis), 37° C., 24 hours): 32 µg/mL
CC[C@@H](C)[C@@H](N)C(=O)N[C@@H](CC(C)C)C(=O)N1CCC[C@H]1C(=O)N[C@@H](Cc1c[nH]c2ccccc12)C(=O)N[C@@H](CCCCN)C(=O)N[C@@H](Cc1c[nH]c2ccccc12)C(=O)N1CCC[C@H]1C(=O)N[C@@H](Cc1c[nH]c2ccccc12)C(=O)N[C@@H](Cc1c[nH]c2ccccc12)C(=O)N1CCC[C@H]1C(=O)N[C@@H](Cc1c[nH]c2ccccc12)C(=O)N[C@@H](CCCNC(=N)N)C(=O)N[C@@H](CCCNC(=N)N)C(=O)OC [Indolicidin-DC] | 4 mg/L (≈ 2.08 µM) | >32 mg/L | 8 mg/L (≈ 4.16 µM) | 2 mg/L (≈ 1.04 µM) | >32 mg/L | –
CC[C@@H](C)[C@@H](N)C(=O)N[C@@H](CC(C)C)C(=O)N1CCC[C@H]1C(=O)N[C@@H](Cc1c[nH]c2ccccc12)C(=O)N[C@@H](CCCCN)C(=O)N[C@@H](Cc1c[nH]c2ccccc12)C(=O)N1CCC[C@H]1C(=O)N[C@@H](Cc1c[nH]c2ccccc12)C(=O)N[C@@H](Cc1c[nH]c2ccccc12)C(=O)N1CCC[C@H]1C(=O)N[C@@H](Cc1c[nH]c2ccccc12)C(=O)N[C@@H](CCCNC(=N)N)C(=O)N[C@@H](CCCNC(=N)N)C(=O)O [Indolicidin-D] | 8 mg/L (≈ 4.19 µM) | >32 mg/L | 4 mg/L (≈ 2.1 µM) | 2 mg/L (≈ 1.05 µM) | >32 mg/L | Mortality after injection of peptide [5]: did not cause mortality
CC[C@H](C)[C@H](N)C(=O)N[C@@H](CC(C)C)C(=O)N1CCC[C@H]1C(=O)N[C@@H](Cc1c[nH]c2ccccc12)C(=O)N[C@@H](CCCCN)C(=O)N[C@@H](Cc1c[nH]c2ccccc12)C(=O)N1CCC[C@H]1C(=O)N[C@@H](Cc1c[nH]c2ccccc12)C(=O)N[C@@H](Cc1c[nH]c2ccccc12)C(=O)N1CCC[C@H]1C(=O)N[C@@H](Cc1c[nH]c2ccccc12)C(=O)N[C@@H](CCCNC(=N)N)C(=O)N[C@@H](CCCNC(=N)N)C(=O)O [Indolicidin-R, reference compound] | – | – | – | – | – | MIC E.coli UB1005 (E. coli UB1005): 32 mg/L (≈ 16.8 µM); MIC P. aeruginosa K799 [1]: >32 mg/L; MIC S. aureus RN4220 [2]: 16 mg/L (≈ 8.39 µM); MIC S. epidermidis C621 [3]: 16 mg/L (≈ 8.39 µM); MIC C. albicans C627 (Candida albicans C627): >32 mg/L
[Mg+2] [Mg^2+ ions, Mg^2+] | – | – | – | – | – | IC50 [6]: ~620 µM
FFKKFPFFPFRRK [CP-24] | 8 mg/L | 32 mg/L | 8 mg/L | – | – | –
ILKKWPWWPWKWKK [CP-13] | 8 mg/L | >32 mg/L | >32 mg/L | 4 mg/L | >32 mg/L | Lowest concentration causing lysis, 4 hours (human red blood cells): >128 µg/mL; Lowest concentration causing lysis, 24 hours (human red blood cells): 128 µg/mL
ILKKWPWWPWRRK-NH2 [CP-11N] | 1 mg/L | – | >32 mg/L | 8 mg/L | – | –
ILPWKKWPWWRWRR [CP-3R] | – | – | – | – | – | MIC E.coli UB1005 (E. coli UB1005): 8 mg/L; MIC P. aeruginosa K799 [1]: 8 mg/L; MIC S. aureus RN4220 [2]: 8 mg/L; MIC S. epidermidis C621 [3]: 4 mg/L; MIC C. albicans C627 (Candida albicans C627): > 32 mg/L; Partial killing observed in dilutions down to (Candida albicans C627; purified recombinant peptide, C. albicans C627): 8 µg/mL
ILPWKWPWYVRR [CP-IA] | >32 mg/L | >32 mg/L | >32 mg/L | >32 mg/L | >32 mg/L | –
